Results as given in US20210145830A1, “MATERIALS AND METHODS FOR TREATING CANCER” (Mayo Foundation for Medical Education and Research, priority 2018, published 2021).

What was measured:
Naïve T cells [1] = experiment: Naïve T cell proliferation assay (PMA/Ionomycin); assay type: cell-based; details: PMA 5 ng/ml + Ionomycin 0.1 μg/ml; TP0903 10-65 nM; 3 days
Protocol: (§1) FIG. 21A-E. TP0903 modulates naïve T cells function upon stimulation of PMA/Ionomycin in vitro. A. Naïve T cell proliferation assay in the presence of TP0903. Naïve T cells were stimulated with 5 ng/ml of PMA and 0.1 μg/ml of Ionomycin in the absence or in the increasing dose of TP0903 (10-65 nM) for 3 days. […] B. At the end of the expansion on day 3, T cells were stained with inhibitory receptors. […] C. Naïve T cell degranulation assay and cytokine production in the presence of TP0903. Naïve T cells were stimulated with 50 ng/ml of PMA and 1 μg/ml of Ionomycin for 4 hours in the presence of increasing doses of TP0903 (10-65 nM). […] D. Western blot analysis of p-LCK and GATA-3 inhibition by TP0903 in naïve T cells. Naïve T cells were stimulated with 5 ng/ml of PMA and 0.1 ug/ml of Ionomycin in the absence (DMSO) or in the increasing dose of TP0903 (10-65 nM) for 24 hours. […] was used as loading control. E. TP0903 specifically reduces regulatory T cells (Treg). Effector T cells (Teff) were isolated by negative selection using RoboSep™ Human T Cell Isolation Kit (Stemcell Technologies). Tregs were isolated by negative selection using the human CD4^+CD127^lowCD25^+ Treg isolation kit (Stemcell Technologies). Teff and Treg were stimulated with anti-CD3/CD28 beads and 400 U/ml of IL-2. At day 5, total T cells were evaluated via CountBright quantification.

Naïve T cells [2] = experiment: Naïve T cell degranulation assay and cytokine production; assay type: cell-based; details: PMA/Ionomycin
Protocol: as §1

[3] = test system: p-LCK and GATA-3 in naïve T cells; experiment: Western blot of p-LCK and GATA-3 in naïve T cells; assay type: cell-based
Protocol: as §1

Effector T cells (Teff) = experiment: Effector T cell expansion (anti-CD3/CD28 beads, IL-2); assay type: cell-based, human; details: anti-CD3/CD28 beads + 400 U/ml IL-2; day 5
Protocol: (§2) FIGS. 19A-F. A. Inhibitory receptors expression in naïve T cells after TCR activation with CD3 stimulation in the increasing dose of TP0903. Naïve T cells were incubated with anti CD3/CD28 beads at a 1 to 3 ratio in the presence of TP0903. At day 3, T cells were stained with PD-1, TIM-3, LAG-3, and ICOS. […] Teff cells were isolated by negative selection using Human T Cell Isolation Kit. Tregs were isolated by negative selection using the human CD4^+CD127^lowCD25^+ Treg isolation kit. Teff and Treg were stimulated with anti CD3/CD28 beads and 400 U/ml of IL-2. At day 5, total T cells were evaluated via CountBright quantification. C. CART19 cytokine assay in the presence TP0903. UTDs or CART19 were incubated with Jeko in the presence of TP-0903 at a 1 to 1 ratio. Supernatant was harvested and analyzed by 32-plex Luminex array after 3 days. D. Inhibitory receptors expression in CART19 cells in the presence TP0903. UTDs or CART19 were incubated with Jeko at a 1 to 1 E/T ratio in the presence of TP0903. At day 5, T cells were stained with PD-1 (left), LAG-3 (right), and TIM-3. […] Cell killing was assessed by luminescence at 24 hours. […]
(§3) FIG. 21A-E. TP0903 modulates naïve T cells function upon stimulation of PMA/Ionomycin in vitro. […] At day 5, total T cells were evaluated via CountBright quantification.

[4] = test system: regulatory T cells (Treg); experiment: Regulatory T cell expansion (anti-CD3/CD28 beads, IL-2); assay type: cell-based, human
Protocol: as §2, §3

CART19 cells = experiment: Th2/Th1 T cell subtype analysis during CART19 expansion; assay type: cell-based; details: irradiated JeKo-1; TP0903 10-30 nM; day 3
Protocol: FIG. 22A-C. In vitro experiment for the combination of CART19 and TP0903. A. CART19 were cocultured at different effector-to-target ratio (E:T) with luciferase-positive JeKo-1. At 48 hours, cell killing was assessed by luminescence. […] The means and SEM are shown (**, p<0.005, *, p<0.05, one-way ANOVA analysis). n.s., not statistically significant. B. CART19 degranulation assay and cytokine production in the presence of TP0903. CART19 were cocultured with JeKo-1 for 4 hours in the presence of TP0903 doses of TP0903 (10-65 nM). […] C. Th2/Th1 T cell subtype analysis during CART19 expansion in the presence pf TP0903. CART19 cells were stimulated with lethally irradiated (120 Gy) JeKo-1 cell lines in the presence of increasing doses of TP0903 (10-30 nM). At the day 3, Th1 and Th2 cells were defined using CD4, CCR6, CCR4 and CXCR3 expression. […] The means and SEM are shown (*, p<0.05, one-way ANOVA analysis). n.s., not statistically significant.

[5] = PMA/Ionomycin, 24 hours, highest dose (65 nM)

## CN1CCN(Cc2ccc(Nc3ncc(Cl)c(Nc4ccccc4S(=O)(=O)N(C)C)n3)cc2)CC1 [TP0903]
Naïve T cells [1]
  T cell expansion: did not interfere
Naïve T cells [2]; 4 hours, increasing dose of TP0903 (10-65 nM)
  IL-4: significant inhibition
Naïve T cells [2]; low dose TP0903
  cytokine production (Th1 / Th2 cytokines): favorably altered through the promotion of Th1 and reduction of Th2 cytokines
[3]; [5]
  GATA-3: modest inhibition
  phosphorylation of LCK: modest inhibition
[3]; T cell lysates, low dose TP0903
  LCK: inhibition
Effector T cells (Teff)
  Teff expansion: not interfered
[4]; anti-CD3/CD28 beads + 400 U/ml IL-2, day 5
  Treg expansion: specifically reduced
[4]; treated with TP0903 for 3 days
  Treg versus effector T cells: preferential reduction
CART19 cells
  Th1/Th2 phenotype (CD4, CCR6, CCR4, CXCR3): major shift toward Th1 phenotype
